Source: patent publication US11318111B2, “CCL5 inhibitors” (LAPKO INC., priority 2018, dated 2022)

Experiments:
rosacea = test: Topical treatment of patients with rosacea; format: in vivo, human; details: two patients, lotion form, 28 days; not in the untreated areas
Method: Rosacea: Two patients with rosacea were treated with Compound 25 for 28 days in a lotion form.

hand and facial eczema = test: Topical treatment of patients with hand and facial eczema; format: in vivo, human; details: four patients, topically applied in cream base over 14 days
Method: To test the effect of the compounds on treatment of human dermatologic disorders associated with increased CCL5 production by keratinocytes, Compound 11 and Compound 21 were formulated into a topically applied cream at a concentration of 7%. The compounds in the cream base were applied topically to human subjects suffering from dermatitis in an area of the skin with active skin lesions. The control was the topical cream base composition without the active compounds. Outcome was measured by reduction or disappearance to the lesion in the treated area vs the control area.
Eczema: Four patients with hand and facial eczema were treated with Compound 97 topically applied in a cream base over a period of 14 days. By day 7 the eczema had resolved in the area treated in three of the patients and by day 12 in the fourth patient. The eczema persisted in the areas not so treated.

SMILES: CC(C)OC(=O)C(C)(C)Oc1ccc(C(F)(F)F)cc1 [Compound 25]
- rosacea in treated area at end of course of therapy (rosacea): nearly disappeared

SMILES: CC(C)OC(=O)C(C)(C)Oc1ccc(C(=O)c2ccc(Cl)cc2)cc1 [Compound 97]
- eczema resolved in treated area by day (fourth patient) (hand and facial eczema; the fourth patient): ≤ 12 days
- eczema resolved in treated area by day (three of the patients) (hand and facial eczema; three of the patients, eczema persisted in untreated areas): ≤ 7 days
